{"source": "ChEMBL document CHEMBL2010722", "about": "“Structure-activity relationship study of beta-carboline derivatives as haspin kinase inhibitors” (Bioorg Med Chem Lett, 2012)", "key": {"[1]": {"target": "Megakaryocyte-associated tyrosine-protein kinase (Homo sapiens) (UniProt P42679)", "sequence (P42679 whole entry)": "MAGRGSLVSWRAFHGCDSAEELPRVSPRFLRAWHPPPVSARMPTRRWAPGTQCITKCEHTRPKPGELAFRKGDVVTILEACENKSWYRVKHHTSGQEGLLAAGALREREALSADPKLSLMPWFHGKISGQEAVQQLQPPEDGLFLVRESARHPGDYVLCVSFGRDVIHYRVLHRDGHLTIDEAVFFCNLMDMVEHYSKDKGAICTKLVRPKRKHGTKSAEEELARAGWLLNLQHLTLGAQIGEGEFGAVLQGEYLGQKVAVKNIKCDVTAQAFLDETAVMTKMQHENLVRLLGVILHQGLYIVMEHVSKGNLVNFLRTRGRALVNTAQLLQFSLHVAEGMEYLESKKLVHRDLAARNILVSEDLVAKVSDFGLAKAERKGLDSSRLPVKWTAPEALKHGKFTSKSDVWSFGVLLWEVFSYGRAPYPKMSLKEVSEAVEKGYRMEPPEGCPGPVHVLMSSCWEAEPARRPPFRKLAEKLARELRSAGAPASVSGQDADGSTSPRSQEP", "experiment": "Inhibition of CTK at 10 uM"}, "[2]": {"target": "Serine/threonine-protein kinase N1 (Homo sapiens) (UniProt Q16512)", "sequence (Q16512 2-942 limits assumed)": "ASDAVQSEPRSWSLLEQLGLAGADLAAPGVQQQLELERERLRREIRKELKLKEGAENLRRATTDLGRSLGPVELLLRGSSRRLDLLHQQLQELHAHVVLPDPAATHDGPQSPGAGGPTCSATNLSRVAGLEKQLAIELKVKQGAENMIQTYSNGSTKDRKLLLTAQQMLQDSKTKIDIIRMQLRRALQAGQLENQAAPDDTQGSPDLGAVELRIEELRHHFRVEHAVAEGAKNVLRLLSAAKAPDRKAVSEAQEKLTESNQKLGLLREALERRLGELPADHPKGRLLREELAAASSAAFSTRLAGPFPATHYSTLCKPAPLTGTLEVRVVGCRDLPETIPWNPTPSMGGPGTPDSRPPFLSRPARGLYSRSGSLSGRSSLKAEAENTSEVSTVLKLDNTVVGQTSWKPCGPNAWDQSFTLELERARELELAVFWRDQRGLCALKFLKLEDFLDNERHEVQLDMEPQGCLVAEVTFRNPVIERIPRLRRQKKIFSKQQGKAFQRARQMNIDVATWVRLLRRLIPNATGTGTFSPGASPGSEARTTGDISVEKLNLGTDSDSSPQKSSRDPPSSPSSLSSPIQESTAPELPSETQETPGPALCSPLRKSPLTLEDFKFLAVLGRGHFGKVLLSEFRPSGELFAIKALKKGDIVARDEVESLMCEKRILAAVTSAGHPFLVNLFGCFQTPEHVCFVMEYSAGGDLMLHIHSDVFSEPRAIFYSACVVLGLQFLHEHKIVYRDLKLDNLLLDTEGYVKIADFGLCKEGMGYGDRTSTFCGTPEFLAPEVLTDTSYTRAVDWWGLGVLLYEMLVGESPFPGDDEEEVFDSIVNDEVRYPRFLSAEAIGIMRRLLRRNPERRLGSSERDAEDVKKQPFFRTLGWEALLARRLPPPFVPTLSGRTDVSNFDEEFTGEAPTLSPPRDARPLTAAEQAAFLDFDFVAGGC", "experiment": "Inhibition of PKN1 at 10 uM"}, "[3]": {"target": "Mitogen-activated protein kinase kinase kinase 9 (Homo sapiens) (UniProt P80192)", "experiment": "Inhibition of MLK1 at 10 uM"}, "[4]": {"target": "Serine/threonine-protein kinase D2 (Homo sapiens) (UniProt Q9BZL6)", "experiment": "Inhibition of PKD2 at 10 uM"}, "[5]": {"target": "Serine/threonine-protein kinase DCLK2 (Homo sapiens) (UniProt Q8N568)", "experiment": "Inhibition of DCAMKL2 at 10 uM"}, "[6]": {"target": "Tyrosine-protein kinase ABL1 (Homo sapiens) (UniProt P00519)", "sequence (P00519 whole entry)": "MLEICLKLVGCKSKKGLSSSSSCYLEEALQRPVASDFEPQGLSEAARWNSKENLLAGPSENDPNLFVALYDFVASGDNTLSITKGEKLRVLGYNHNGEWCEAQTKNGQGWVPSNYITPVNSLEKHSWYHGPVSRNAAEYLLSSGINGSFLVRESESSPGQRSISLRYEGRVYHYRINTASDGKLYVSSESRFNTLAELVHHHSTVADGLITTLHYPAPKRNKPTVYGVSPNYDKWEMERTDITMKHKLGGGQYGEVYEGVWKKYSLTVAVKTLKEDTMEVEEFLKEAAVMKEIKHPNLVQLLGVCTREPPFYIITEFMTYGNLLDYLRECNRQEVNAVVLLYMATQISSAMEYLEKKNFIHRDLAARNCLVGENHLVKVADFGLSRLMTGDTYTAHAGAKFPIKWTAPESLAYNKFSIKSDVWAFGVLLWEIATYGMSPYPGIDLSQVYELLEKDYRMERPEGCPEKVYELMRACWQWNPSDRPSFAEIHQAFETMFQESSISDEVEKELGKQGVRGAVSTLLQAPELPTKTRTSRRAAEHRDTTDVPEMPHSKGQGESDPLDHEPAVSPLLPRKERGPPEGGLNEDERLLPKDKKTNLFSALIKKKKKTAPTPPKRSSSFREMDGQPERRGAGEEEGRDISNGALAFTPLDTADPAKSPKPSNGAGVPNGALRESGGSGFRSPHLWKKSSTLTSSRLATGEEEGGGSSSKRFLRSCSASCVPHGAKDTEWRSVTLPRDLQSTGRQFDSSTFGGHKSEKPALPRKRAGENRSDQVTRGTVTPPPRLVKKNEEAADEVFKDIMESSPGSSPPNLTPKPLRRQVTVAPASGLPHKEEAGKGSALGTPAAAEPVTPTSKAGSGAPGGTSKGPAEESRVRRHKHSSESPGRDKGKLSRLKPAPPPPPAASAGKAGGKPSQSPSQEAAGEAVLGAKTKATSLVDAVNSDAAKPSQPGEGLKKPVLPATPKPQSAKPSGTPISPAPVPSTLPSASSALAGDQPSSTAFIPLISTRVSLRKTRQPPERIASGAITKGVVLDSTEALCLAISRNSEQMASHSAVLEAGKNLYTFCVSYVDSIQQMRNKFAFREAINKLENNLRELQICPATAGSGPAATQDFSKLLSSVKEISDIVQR", "experiment": "Inhibition of ABL at 10 uM"}, "[7]": {"target": "ALK tyrosine kinase receptor (Homo sapiens) (UniProt Q9UM73)", "experiment": "Inhibition of ALK at 10 uM"}, "[8]": {"target": "Inhibitor of nuclear factor kappa-B kinase subunit alpha (Homo sapiens) (UniProt O15111)", "experiment": "Inhibition of IKKa at 10 uM"}, "[9]": {"target": "SRSF protein kinase 1 (Homo sapiens) (UniProt Q96SB4)", "experiment": "Inhibition of SRPK1 at 10 uM"}, "[10]": {"target": "Aurora kinase B/Inner centromere protein (Homo sapiens) (UniProt Q96GD4+Q9NQS7)", "experiment": "Inhibition of AurB-INCENP at 10 uM", "type": "protein-complex assay"}, "[11]": {"target": "Tyrosine-protein kinase Blk (Homo sapiens) (UniProt P51451)", "experiment": "Inhibition of BLK at 10 uM"}, "[12]": {"target": "Mitogen-activated protein kinase kinase kinase 3 (Homo sapiens) (UniProt Q99759)", "sequence (Q99759 whole entry)": "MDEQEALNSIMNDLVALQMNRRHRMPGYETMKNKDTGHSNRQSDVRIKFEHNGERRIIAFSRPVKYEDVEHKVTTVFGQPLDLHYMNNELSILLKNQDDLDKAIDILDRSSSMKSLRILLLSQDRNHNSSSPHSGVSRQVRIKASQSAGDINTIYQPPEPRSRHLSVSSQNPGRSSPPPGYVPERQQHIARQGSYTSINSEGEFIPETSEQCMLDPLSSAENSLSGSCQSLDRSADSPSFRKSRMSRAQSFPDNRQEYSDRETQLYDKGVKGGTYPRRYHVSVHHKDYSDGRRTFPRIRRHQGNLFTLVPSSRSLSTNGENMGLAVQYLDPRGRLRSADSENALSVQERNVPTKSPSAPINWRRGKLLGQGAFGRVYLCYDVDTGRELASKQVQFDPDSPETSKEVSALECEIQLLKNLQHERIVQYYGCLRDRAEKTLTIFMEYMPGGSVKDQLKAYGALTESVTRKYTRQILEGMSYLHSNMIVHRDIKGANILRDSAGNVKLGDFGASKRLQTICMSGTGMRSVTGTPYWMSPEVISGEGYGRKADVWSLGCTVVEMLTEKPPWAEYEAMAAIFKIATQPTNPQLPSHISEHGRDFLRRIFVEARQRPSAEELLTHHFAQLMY", "experiment": "Inhibition of MAP3K3 at 10 uM"}, "[13]": {"target": "Ephrin type-B receptor 4 (Homo sapiens) (UniProt P54760)", "experiment": "Inhibition of EPHB4 at 10 uM"}, "[14]": {"target": "Cyclin-dependent kinase 5/CDK5 activator 1 (Homo sapiens) (UniProt Q00535+Q15078)", "experiment": "Inhibition of CDK5-p25 at 10 uM", "type": "protein-complex assay"}, "[15]": {"target": "Ephrin type-B receptor 3 (Homo sapiens) (UniProt P54753)", "experiment": "Inhibition of EPHB3 at 10 uM"}, "[16]": {"target": "Dual specificity mitogen-activated protein kinase kinase 6 (Homo sapiens) (UniProt P52564)", "sequence (P52564 whole entry)": "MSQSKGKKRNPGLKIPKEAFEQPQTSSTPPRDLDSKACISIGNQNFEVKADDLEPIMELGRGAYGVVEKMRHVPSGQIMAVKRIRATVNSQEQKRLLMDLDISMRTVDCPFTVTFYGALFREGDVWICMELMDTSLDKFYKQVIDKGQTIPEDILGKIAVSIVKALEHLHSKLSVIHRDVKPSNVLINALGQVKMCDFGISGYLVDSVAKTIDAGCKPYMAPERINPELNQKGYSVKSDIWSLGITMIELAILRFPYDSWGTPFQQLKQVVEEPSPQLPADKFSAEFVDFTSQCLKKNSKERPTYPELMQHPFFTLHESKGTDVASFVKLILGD", "experiment": "Inhibition of MAP2K6 at 10 uM"}, "[17]": {"target": "Tyrosine-protein kinase Mer (Homo sapiens) (UniProt Q12866)", "experiment": "Inhibition of MER at 10 uM"}, "[18]": {"target": "Citron Rho-interacting kinase (Homo sapiens) (UniProt O14578)", "experiment": "Inhibition of CRIK at 10 uM"}, "[19]": {"target": "Bone morphogenetic protein receptor type-1A (Homo sapiens) (UniProt P36894)", "experiment": "Inhibition of BMPR1A at 10 uM"}, "[20]": {"target": "Epithelial discoidin domain-containing receptor 1 (Homo sapiens) (UniProt Q08345)", "experiment": "Inhibition of DDR1 at 10 uM"}, "[21]": {"target": "Angiopoietin-1 receptor (Homo sapiens) (UniProt Q02763)", "experiment": "Inhibition of TIE2 at 10 uM"}, "[22]": {"target": "Calcium/calmodulin-dependent protein kinase type 1D (Homo sapiens) (UniProt Q8IU85)", "experiment": "Inhibition of CaMK1d at 10 uM"}, "[23]": {"target": "Homeodomain-interacting protein kinase 4 (Homo sapiens) (UniProt Q8NE63)", "experiment": "Inhibition of HIPK4 at 10 uM"}, "[24]": {"target": "Serine/threonine-protein kinase D3 (Homo sapiens) (UniProt O94806)", "experiment": "Inhibition of PKD3 at 10 uM"}, "[25]": {"target": "Tyrosine-protein kinase Fer (Homo sapiens) (UniProt P16591)", "experiment": "Inhibition of FER at 10 uM"}, "[26]": {"target": "Mitogen-activated protein kinase kinase kinase 11 (Homo sapiens) (UniProt Q16584)", "experiment": "Inhibition of MLK3 at 10 uM"}, "[27]": {"target": "Serine/threonine-protein kinase pim-2 (Homo sapiens) (UniProt Q9P1W9)", "experiment": "Inhibition of PIM2 at 10 uM"}, "[28]": {"target": "CDK6/cyclin D3 (Homo sapiens) (UniProt P30281+Q00534)", "experiment": "Inhibition of CDK6-CycD3 at 10 uM", "type": "protein-complex assay"}, "[29]": {"target": "Ephrin type-A receptor 8 (Homo sapiens) (UniProt P29322)", "experiment": "Inhibition of EPHA8 at 10 uM"}, "[30]": {"target": "Serine/threonine-protein kinase PLK3 (Homo sapiens) (UniProt Q9H4B4)", "experiment": "Inhibition of PLK3 at 10 uM"}, "[31]": {"target": "Serine/threonine-protein kinase MRCK alpha (Homo sapiens) (UniProt Q5VT25)", "experiment": "Inhibition of MRCKa at 10 uM"}, "[32]": {"target": "NT-3 growth factor receptor (Homo sapiens) (UniProt Q16288)", "experiment": "Inhibition of TRKC at 10 uM"}, "[33]": {"target": "Misshapen-like kinase 1 (Homo sapiens) (UniProt Q8N4C8)", "experiment": "Inhibition of MINK at 10 uM"}, "[34]": {"target": "Serine/threonine-protein kinase Chk2 (Homo sapiens) (UniProt O96017)", "experiment": "Inhibition of CHK2 at 10 uM"}, "[35]": {"target": "Serine/threonine-protein kinase PAK 6 (Homo sapiens) (UniProt Q9NQU5)", "experiment": "Inhibition of PAK6 at 10 uM"}, "[36]": {"target": "Serine/threonine-protein kinase PLK2 (Homo sapiens) (UniProt Q9NYY3)", "sequence (Q9NYY3 whole entry, looked up)": "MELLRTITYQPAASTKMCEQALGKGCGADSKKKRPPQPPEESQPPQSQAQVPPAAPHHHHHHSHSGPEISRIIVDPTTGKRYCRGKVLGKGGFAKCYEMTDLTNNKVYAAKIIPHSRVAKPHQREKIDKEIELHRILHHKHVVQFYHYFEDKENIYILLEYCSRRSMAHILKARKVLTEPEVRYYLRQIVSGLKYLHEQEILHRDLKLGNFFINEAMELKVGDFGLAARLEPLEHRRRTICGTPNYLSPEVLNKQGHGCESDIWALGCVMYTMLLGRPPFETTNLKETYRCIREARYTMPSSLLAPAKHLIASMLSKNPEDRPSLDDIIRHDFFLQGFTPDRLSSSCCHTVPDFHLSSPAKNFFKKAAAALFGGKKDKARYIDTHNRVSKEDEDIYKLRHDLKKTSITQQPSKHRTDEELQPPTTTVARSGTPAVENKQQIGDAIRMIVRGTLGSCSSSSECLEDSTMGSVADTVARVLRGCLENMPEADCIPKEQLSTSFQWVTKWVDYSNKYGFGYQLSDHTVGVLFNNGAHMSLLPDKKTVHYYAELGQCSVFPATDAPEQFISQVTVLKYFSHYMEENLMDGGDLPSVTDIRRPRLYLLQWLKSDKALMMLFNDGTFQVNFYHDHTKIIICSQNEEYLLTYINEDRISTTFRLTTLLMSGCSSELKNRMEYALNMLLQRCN", "experiment": "Inhibition of PLK2 at 10 uM"}, "[37]": {"target": "Ribosomal protein S6 kinase alpha-4 (Homo sapiens) (UniProt O75676)", "sequence (O75676 whole entry, looked up)": "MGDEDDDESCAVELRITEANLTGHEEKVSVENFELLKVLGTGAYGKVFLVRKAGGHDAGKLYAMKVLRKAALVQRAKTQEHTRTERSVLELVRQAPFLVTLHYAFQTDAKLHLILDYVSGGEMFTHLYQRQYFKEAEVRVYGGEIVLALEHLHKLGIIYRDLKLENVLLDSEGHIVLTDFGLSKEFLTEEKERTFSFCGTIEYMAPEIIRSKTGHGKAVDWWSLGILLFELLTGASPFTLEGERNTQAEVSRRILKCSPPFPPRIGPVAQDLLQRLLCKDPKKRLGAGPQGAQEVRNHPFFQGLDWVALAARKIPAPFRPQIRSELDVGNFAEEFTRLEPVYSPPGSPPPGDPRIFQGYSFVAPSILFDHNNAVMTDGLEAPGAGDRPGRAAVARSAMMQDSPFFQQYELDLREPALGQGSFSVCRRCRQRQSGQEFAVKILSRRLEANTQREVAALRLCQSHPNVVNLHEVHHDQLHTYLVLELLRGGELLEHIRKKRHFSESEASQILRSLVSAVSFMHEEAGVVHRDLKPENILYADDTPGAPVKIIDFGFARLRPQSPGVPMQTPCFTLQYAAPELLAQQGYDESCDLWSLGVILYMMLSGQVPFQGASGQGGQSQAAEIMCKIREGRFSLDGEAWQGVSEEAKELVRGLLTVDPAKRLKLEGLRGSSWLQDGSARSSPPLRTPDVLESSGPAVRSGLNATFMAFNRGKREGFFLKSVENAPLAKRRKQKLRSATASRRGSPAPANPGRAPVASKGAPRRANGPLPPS", "experiment": "Inhibition of MSK2 N-terminal at 10 uM"}, "[38]": {"target": "Casein kinase I isoform gamma-3 (Homo sapiens) (UniProt Q9Y6M4)", "experiment": "Inhibition of CK1g3 at 10 uM"}, "[39]": {"target": "Non-receptor tyrosine-protein kinase TNK1 (Homo sapiens) (UniProt Q13470)", "experiment": "Inhibition of TNK1 at 10 uM"}, "[40]": {"target": "MAP/microtubule affinity-regulating kinase 4 (Homo sapiens) (UniProt Q96L34)", "experiment": "Inhibition of MARK4 at 10 uM"}, "[41]": {"target": "Mitogen-activated protein kinase 1 (Homo sapiens) (UniProt P28482)", "experiment": "Inhibition of Erk2 at 10 uM"}, "[42]": {"target": "Tyrosine-protein kinase BTK (Homo sapiens) (UniProt Q06187)", "experiment": "Inhibition of BTK at 10 uM"}, "[43]": {"target": "Serine/threonine-protein kinase PAK 4 (Homo sapiens) (UniProt O96013)", "experiment": "Inhibition of PAK4 at 10 uM"}, "[44]": {"target": "Fibroblast growth factor receptor 1 (Homo sapiens) (UniProt P11362)", "experiment": "Inhibition of FGFR1 at 10 uM"}, "[45]": {"target": "NPM/ALK (Nucleophosmin/ALK tyrosine kinase receptor) (Homo sapiens) (UniProt Q9UM73+P06748)", "experiment": "Inhibition of NPM1-ALK at 10 uM", "type": "protein-complex assay"}, "[46]": {"target": "RAC-beta serine/threonine-protein kinase (Homo sapiens) (UniProt P31751)", "experiment": "Inhibition of AKT2 at 10 uM"}, "[47]": {"target": "Maternal embryonic leucine zipper kinase (Homo sapiens) (UniProt Q14680)", "experiment": "Inhibition of MELK at 10 uM"}}, "data": [{"compound": "COc1ccc2c3ccnc(C(F)(F)F)c3n(CCCCN)c2c1", "values": [{"measurement": "inhibition", "setting": "[1]", "value": 25, "unit": "%"}, {"measurement": "inhibition", "setting": "[2]", "value": 52, "unit": "%"}, {"measurement": "inhibition", "setting": "[3]", "value": 0, "unit": "%"}, {"measurement": "inhibition", "setting": "[4]", "value": 84, "unit": "%"}, {"measurement": "inhibition", "setting": "[5]", "value": 4, "unit": "%"}, {"measurement": "inhibition", "setting": "[6]", "value": 3, "unit": "%"}, {"measurement": "inhibition", "setting": "[7]", "value": 5, "unit": "%"}, {"measurement": "inhibition", "setting": "[8]", "value": 7, "unit": "%"}, {"measurement": "inhibition", "setting": "[9]", "value": 7, "unit": "%"}, {"measurement": "inhibition", "setting": "[10]", "value": 5, "unit": "%"}, {"measurement": "inhibition", "setting": "[11]", "value": 4, "unit": "%"}, {"measurement": "inhibition", "setting": "[12]", "value": 0, "unit": "%"}, {"measurement": "inhibition", "setting": "[13]", "value": 0, "unit": "%"}, {"measurement": "inhibition", "setting": "[14]", "value": 39, "unit": "%"}, {"measurement": "inhibition", "setting": "[15]", "value": 0, "unit": "%"}, {"measurement": "inhibition", "setting": "[16]", "value": 46, "unit": "%"}, {"measurement": "inhibition", "setting": "[17]", "value": 35, "unit": "%"}, {"measurement": "inhibition", "setting": "[18]", "value": 86, "unit": "%"}, {"measurement": "inhibition", "setting": "[19]", "value": 35, "unit": "%"}, {"measurement": "inhibition", "setting": "[20]", "value": 8, "unit": "%"}, {"measurement": "inhibition", "setting": "[21]", "value": 0, "unit": "%"}, {"measurement": "inhibition", "setting": "[22]", "value": 4, "unit": "%"}, {"measurement": "inhibition", "setting": "[23]", "value": 28, "unit": "%"}, {"measurement": "inhibition", "setting": "[24]", "value": 92, "unit": "%"}, {"measurement": "inhibition", "setting": "[25]", "value": 8, "unit": "%"}, {"measurement": "inhibition", "setting": "[26]", "value": 3, "unit": "%"}, {"measurement": "inhibition", "setting": "[27]", "value": 64, "unit": "%"}, {"measurement": "inhibition", "setting": "[28]", "value": 28, "unit": "%"}, {"measurement": "inhibition", "setting": "[29]", "value": 0, "unit": "%"}, {"measurement": "inhibition", "setting": "[30]", "value": 10, "unit": "%"}, {"measurement": "inhibition", "setting": "[31]", "value": 18, "unit": "%"}, {"measurement": "inhibition", "setting": "[32]", "value": 25, "unit": "%"}, {"measurement": "inhibition", "setting": "[33]", "value": 17, "unit": "%"}, {"measurement": "inhibition", "setting": "[34]", "value": 27, "unit": "%"}, {"measurement": "inhibition", "setting": "[35]", "value": 13, "unit": "%"}, {"measurement": "inhibition", "setting": "[36]", "value": 15, "unit": "%"}, {"measurement": "inhibition", "setting": "[37]", "value": 16, "unit": "%"}, {"measurement": "inhibition", "setting": "[38]", "value": 53, "unit": "%"}, {"measurement": "inhibition", "setting": "[39]", "value": 10, "unit": "%"}, {"measurement": "inhibition", "setting": "[40]", "value": 50, "unit": "%"}, {"measurement": "inhibition", "setting": "[41]", "value": 7, "unit": "%"}, {"measurement": "inhibition", "setting": "[42]", "value": 0, "unit": "%"}, {"measurement": "inhibition", "setting": "[43]", "value": 13, "unit": "%"}, {"measurement": "inhibition", "setting": "[44]", "value": 5, "unit": "%"}, {"measurement": "inhibition", "setting": "[45]", "value": 4, "unit": "%"}, {"measurement": "inhibition", "setting": "[46]", "value": 4, "unit": "%"}, {"measurement": "inhibition", "setting": "[47]", "value": 78, "unit": "%"}]}]}
